Our source for the kinase still bound, per cent of control values is the kinase profiling compilation of Christmann-Franck et al. (2016).

Common to all, as to experiment: KINOMEscan competition binding
Common to all, as to settings: compound 10.0 µM

Test [1] concerns LRRK2 (human), Q5S007 [G2019S].
Test [2] concerns EGFR (human), P00533 [G719C].
The subject of test [3] is FLT3 (human), P36888 [D835Y].
In test [4] the test system is RET (human), P07949 [V804L].
Test [5] relates to EGFR (human), P00533 [L858R].
Test [6] concerns KIT (human), P10721 [A829P].
In test [7] the test system is FGFR3 (human), P22607 [G697C].
Test [8] relates to PIK3CA (human), P42336 [H1047L].
Test [9] has as its system PIK3CA (human), P42336 [E542K].
For test [10], the system named is ABL1 (human), P00519 [F317L].
Test [11] concerns BMX (human), P51813 [V600E].
The subject of test [12] is EGFR (human), P00533 [A750P; 747-749 del].
Test [13] has as its system ABL1 (human), P00519 [F317I].
The subject of test [14] is MET (human), P08581 [M1250T].
Test [15] has as its system PIK3CA (human), P42336 [M1043I].

Chain of ABL1 (human), P00519 [F317I] (P00519 whole entry F317I, looked up): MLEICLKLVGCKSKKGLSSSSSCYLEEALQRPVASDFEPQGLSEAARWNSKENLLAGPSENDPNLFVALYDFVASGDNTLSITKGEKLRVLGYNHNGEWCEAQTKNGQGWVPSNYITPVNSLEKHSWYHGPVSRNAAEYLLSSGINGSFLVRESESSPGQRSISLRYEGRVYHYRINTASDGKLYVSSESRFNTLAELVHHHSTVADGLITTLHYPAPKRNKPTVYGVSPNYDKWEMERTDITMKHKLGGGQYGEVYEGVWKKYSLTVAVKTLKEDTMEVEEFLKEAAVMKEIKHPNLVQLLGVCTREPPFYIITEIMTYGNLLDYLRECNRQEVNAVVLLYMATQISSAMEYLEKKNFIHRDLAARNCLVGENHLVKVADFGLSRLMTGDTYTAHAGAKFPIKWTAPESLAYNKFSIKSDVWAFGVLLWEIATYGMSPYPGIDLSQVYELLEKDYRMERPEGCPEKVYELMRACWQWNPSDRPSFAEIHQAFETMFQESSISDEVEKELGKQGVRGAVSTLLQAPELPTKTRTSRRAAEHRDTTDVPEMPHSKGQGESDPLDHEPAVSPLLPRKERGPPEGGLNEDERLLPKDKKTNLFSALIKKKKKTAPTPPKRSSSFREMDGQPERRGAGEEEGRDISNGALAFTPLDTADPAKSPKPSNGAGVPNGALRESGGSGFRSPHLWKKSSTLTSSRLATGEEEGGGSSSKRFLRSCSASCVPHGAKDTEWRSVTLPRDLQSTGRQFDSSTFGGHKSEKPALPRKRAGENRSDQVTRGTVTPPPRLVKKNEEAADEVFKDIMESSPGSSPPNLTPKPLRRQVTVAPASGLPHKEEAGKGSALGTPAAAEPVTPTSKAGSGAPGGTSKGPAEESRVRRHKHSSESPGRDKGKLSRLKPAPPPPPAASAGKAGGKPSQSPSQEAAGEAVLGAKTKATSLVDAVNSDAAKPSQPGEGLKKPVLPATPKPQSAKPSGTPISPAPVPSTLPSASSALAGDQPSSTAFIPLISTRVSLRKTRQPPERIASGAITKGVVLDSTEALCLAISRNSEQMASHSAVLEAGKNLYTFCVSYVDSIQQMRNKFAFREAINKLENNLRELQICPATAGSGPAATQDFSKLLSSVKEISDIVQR
Chain of BMX (human), P51813 [V600E] (P51813 whole entry, looked up, stated change not applied): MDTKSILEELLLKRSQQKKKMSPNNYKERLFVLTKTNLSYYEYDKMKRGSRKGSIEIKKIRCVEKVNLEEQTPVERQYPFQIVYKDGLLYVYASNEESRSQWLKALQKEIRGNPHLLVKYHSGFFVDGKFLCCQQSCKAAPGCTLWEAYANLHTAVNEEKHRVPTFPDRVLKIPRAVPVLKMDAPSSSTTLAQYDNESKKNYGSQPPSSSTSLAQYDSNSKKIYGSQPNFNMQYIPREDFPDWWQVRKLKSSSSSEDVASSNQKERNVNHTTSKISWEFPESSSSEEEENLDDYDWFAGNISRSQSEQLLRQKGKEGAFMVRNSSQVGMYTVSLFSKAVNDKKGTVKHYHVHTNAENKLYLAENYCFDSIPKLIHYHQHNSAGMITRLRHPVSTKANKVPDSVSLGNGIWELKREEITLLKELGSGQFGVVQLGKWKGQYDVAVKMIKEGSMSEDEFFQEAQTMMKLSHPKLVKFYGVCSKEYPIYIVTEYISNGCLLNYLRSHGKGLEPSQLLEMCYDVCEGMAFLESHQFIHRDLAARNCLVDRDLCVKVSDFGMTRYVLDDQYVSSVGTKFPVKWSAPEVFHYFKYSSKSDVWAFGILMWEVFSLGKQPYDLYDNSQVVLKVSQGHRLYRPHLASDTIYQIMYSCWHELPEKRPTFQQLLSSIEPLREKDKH
Chain of PIK3CA (human), P42336 [H1047L] (P42336 whole entry H1047L, looked up): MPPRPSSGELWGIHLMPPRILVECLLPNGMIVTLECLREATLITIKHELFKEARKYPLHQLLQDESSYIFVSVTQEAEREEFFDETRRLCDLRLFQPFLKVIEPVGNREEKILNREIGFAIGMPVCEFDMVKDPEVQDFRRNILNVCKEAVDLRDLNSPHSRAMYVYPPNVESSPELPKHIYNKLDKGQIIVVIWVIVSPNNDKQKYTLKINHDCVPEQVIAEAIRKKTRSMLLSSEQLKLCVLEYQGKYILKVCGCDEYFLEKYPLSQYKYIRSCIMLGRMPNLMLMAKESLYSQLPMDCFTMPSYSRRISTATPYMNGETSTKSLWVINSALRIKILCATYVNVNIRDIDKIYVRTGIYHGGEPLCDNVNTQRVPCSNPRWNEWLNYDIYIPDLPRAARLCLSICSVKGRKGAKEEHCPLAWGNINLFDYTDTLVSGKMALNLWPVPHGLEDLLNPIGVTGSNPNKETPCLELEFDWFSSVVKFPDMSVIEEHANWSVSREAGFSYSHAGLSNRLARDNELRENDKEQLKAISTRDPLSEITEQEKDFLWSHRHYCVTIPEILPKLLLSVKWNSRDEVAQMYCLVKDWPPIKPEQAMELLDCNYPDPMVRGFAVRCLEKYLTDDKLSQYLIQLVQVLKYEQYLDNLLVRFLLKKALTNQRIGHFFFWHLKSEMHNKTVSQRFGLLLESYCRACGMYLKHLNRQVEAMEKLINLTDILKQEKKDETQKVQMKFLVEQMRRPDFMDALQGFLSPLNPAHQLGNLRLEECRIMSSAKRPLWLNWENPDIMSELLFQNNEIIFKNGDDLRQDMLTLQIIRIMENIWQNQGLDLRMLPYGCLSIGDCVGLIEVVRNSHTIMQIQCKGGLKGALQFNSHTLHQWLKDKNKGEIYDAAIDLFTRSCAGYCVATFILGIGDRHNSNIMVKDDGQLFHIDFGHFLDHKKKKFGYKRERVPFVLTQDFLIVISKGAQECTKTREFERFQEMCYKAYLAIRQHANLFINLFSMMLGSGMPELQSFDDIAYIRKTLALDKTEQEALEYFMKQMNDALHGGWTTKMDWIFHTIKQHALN
Chain of FGFR3 (human), P22607 [G697C] (P22607 whole entry G697C, looked up): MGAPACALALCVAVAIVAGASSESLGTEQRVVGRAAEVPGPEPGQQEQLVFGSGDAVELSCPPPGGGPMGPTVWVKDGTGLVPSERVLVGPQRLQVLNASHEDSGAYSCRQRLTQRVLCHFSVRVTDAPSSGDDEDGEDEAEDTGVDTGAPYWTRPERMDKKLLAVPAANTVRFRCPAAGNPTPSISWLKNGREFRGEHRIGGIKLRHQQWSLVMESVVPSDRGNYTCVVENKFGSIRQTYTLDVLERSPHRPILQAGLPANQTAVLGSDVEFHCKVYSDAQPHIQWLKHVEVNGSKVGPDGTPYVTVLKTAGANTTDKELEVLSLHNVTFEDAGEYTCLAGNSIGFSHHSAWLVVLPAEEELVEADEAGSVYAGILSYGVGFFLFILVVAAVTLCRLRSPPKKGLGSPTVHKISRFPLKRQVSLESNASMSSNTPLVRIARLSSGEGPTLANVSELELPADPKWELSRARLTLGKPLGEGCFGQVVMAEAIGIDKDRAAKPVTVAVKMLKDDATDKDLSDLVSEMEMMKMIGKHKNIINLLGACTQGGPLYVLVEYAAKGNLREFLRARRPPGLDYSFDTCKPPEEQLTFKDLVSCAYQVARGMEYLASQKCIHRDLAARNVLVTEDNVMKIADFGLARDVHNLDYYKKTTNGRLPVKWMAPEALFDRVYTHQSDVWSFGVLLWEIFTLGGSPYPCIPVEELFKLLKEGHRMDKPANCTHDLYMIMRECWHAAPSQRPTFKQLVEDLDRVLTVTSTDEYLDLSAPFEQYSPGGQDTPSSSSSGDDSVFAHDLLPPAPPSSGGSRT
Chain of PIK3CA (human), P42336 [E542K] (P42336 whole entry E542K, looked up): as the sequence (P42336 whole entry H1047L, looked up) above, with E542K, L1047H counted along it
Chain of RET (human), P07949 [V804L] (P07949 whole entry V804L, looked up): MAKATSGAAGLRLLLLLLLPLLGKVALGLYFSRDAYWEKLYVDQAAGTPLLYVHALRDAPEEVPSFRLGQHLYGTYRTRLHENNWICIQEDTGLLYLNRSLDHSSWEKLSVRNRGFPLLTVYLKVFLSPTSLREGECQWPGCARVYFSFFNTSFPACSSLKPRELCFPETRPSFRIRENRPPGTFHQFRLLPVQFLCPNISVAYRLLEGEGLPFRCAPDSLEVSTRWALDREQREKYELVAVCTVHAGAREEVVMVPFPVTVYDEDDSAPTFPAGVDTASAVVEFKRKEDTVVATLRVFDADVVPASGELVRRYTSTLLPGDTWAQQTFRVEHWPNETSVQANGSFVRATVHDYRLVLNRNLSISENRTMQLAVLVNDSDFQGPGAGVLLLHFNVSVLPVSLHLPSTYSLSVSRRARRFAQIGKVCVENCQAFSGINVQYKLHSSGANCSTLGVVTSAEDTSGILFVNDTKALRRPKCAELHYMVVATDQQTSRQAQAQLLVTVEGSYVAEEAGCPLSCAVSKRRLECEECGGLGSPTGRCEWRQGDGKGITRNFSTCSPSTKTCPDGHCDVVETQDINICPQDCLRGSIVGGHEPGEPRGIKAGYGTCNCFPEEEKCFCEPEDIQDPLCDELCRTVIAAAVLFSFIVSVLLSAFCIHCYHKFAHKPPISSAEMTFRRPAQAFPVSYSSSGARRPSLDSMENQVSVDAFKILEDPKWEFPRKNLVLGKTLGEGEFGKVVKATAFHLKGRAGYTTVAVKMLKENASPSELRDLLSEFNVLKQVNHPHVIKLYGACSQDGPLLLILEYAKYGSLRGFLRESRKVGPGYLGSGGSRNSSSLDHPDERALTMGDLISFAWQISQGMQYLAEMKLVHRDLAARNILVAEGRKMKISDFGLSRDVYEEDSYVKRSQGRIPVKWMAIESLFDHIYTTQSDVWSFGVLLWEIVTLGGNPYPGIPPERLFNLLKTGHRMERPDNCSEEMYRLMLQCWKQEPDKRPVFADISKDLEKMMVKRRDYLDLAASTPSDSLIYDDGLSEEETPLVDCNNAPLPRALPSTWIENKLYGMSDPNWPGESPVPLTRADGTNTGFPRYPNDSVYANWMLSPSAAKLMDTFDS
Chain of ABL1 (human), P00519 [F317L] (P00519 whole entry F317L, looked up): as the sequence (P00519 whole entry F317I, looked up) above, with I317L counted along it
Chain of PIK3CA (human), P42336 [M1043I] (P42336 whole entry M1043I, looked up): as the sequence (P42336 whole entry H1047L, looked up) above, with M1043I, L1047H counted along it

Consider `COc1cc2ncn(-c3cc(OCc4ccccc4C(F)(F)F)c(C(N)=O)s3)c2cc1OC`, for which the kinase still bound, per cent of control is 60% in test [1]; 94% in test [2]; 26% in test [3]; 24% in test [4]; 47% in test [5]; 57% in test [6]. For the same compound, the kinase still bound, per cent of control is 26% in [7]; 73% in test [8]; 100% in test [9]; 70% in test [10]; 92% in [11]; 50% in [12]. In addition, the kinase still bound, per cent of control in [13] turned out to be 100%; in test [14], 31%.
For the compound `N#CCNC(=O)c1ccc(-c2ccnc(Nc3ccc(N4CCOCC4)cc3)n2)cc1`, the kinase still bound, per cent of control is 41% in [1]; 64% in test [4]; 100% in test [5]; 72% in test [6]; 79% in test [7]; 100% in [8]. Besides, the kinase still bound, per cent of control in [9] was 100%; in test [10] it was 100%; in test [11], 56%; in test [12], 100%; in test [13] it was 55%; in [14], 100%. In [15], this compound yielded a kinase still bound, per cent of control of 100%.
